# How the values were obtained:
# [1] = Rat single-dose toxicokinetic study; assay type: in vivo, Sprague Dawley rats; conditions: IV bolus; for Tmax / half-life: plasma
# Experimental: Pre-IND PD and toxicokinetic (TK) studies (FIG. 4D) were enabled by scalable Rebecsinib synthesis^34 and development of an optimized formulation for in vivo biodistribution (5% w/v EtOH, 5% w/v Kolliphor HS15 in 0.9% Sodium Chloride). In PK studies, Rebecsinib was detectable in rat, rabbit, and non-human primate (NHP) plasma following IV bolus administration. In rat TK studies, Rebecsinib was quantifiable up to 1-hour post-dose at 1 mg/kg and up to 4 hours post-dose at 3, 5, and 8 mg/kg (FIG. 4E). […] Rebecsinib T1/2 values were 0.342, 0.447, 0.313, and 0.530 hours at 1, 3, 5, and 8 mg/kg, respectively. […] Following 3, 10, and 20 mg/kg boluses, Rebecsinib was quantifiable in plasma 1 hour post-dose and could be detected up to 8 hours post-dosing with 40 mg/kg (FIG. 4F). […] Following 3, 10, 15, and 20 mg/kg of Rebecsinib, quantifiable plasma concentrations of Rebecsinib were observed through 8 hrs post-dose (FIG. 4G).
# (FIG. 29D) Schematic diagram outlining multispecies toxicokinetic (TK) and pharmacodynamic studies in mammalian species treated in vivo with a single dose of Rebecsinib. Toxicokinetic analyses were performed in rats (n=6 per sex, per group), rabbits (n=2 per sex, per group), and non-human primates (NHPs, n=1 per sex, per group) and pharmacodynamic splice isoform quantification studies were performed in peripheral blood mononuclear cells (PBMCs) from NHP.
# (FIG. 29E, FIG. 29F) For toxicokinetic analyses, rats (FIG. 29E) and rabbits (FIG. 29F) were given a single injection of Rebecsinib at 1-40 mg/kg, or vehicle control, and blood samples were drawn at regular intervals to determine plasma concentrations of the compound over 8 hr after treatment.
# Single-dose TK studies were performed in Sprague Dawley rats (Charles River Labs, South San Francisco, CA), New Zealand white rabbits (BASi/Inotiv, West Lafayette, IN), and cynomolgus monkeys (BASi/Inotiv). Rat and rabbit studies included toxicology analyses, quantification of plasma levels of Rebecsinib, and necropsies to evaluate organ integrity after treatment. For NHP studies, health and ophthalmological evaluations were performed before and after dosing with Rebecsinib, and blood samples were collected for quantification of plasma levels of Rebecsinib and biomarker studies in PBMCs from treated and control animals. All monkeys were returned to the animal colony after the end of the observation period. Toxicokinetic values including mean plasma concentrations and t1/2 values were calculated according to CRO-approved protocols (Charles River and BASi).
# [2] = system: CD34+Lin- cells (sAML50261); test: sAML50261 PDX mice, flow cytometry of PB, SP, BM; assay type: in vivo, human cells in Rag2-/-gc-/- mice; conditions: 10 mg/kg, intravenously, twice a week for 2 weeks
# Experimental: The mouse models were screened by staining the PB of each mouse with a human CD45 mAb. Mice with a threshold of human CD45^+ cells >1% were included in the treatment cohort for Rebecchini. The dosing plan involved administering Rebecsinib at a dose of 10 mg/kg, intravenously, twice a week for 2 weeks, with a total of 5 doses. Single cells were isolated from the mouse organs, including PB, SP, and BM, and subjected to staining with human stem cell markers and lineage cell markers.
# [3] = system: sAML LSC, MF HPC, normal HSPC; test: Clonogenic survival and replating (self-renewal) assays in stromal co-culture; assay type: cell-based, human
# Text: (FIG. 28D, FIG. 28E) Quantification of colony formation (survival, FIG. 28D) and replating (self-renewal, FIG. 28E) of high-risk MF HPC and sAML LSC compared with cord blood (CB) and aged versus young normal bone marrow (a-NBM, y-NBM) controls treated with Rebecsinib at increasing concentrations. Bar graphs show data as mean±SEM and statistical analyses by pairwise t-test and dose-response assays show data as mean±SD and statistical analyses by one-way ANOVA.
# (§1) Primary patient samples and normal bone marrow controls used for functional assays are described in Table 1. Human HS5 and HS27a^45 or mouse bone marrow cells lines SL (hSCF and hIL3) and M2 (hIL3 and hG-CSF) were irradiated and then mixed at a ratio of 1:1 and incubated overnight for attachment. […] After 2 weeks primary colonies (more than 40 cells) were counted and individual multilineage colonies were plucked, cells resuspended, and re-plated again in fresh MC. Secondary colonies were counted after another 14 days. […]
# as §1, with “Human” for “Primary patient samples and normal bone marrow controls used for functional assays are described in Table 1. Human”, “resuspended” for “resuspended,”
compound,measurement,setting,value
CC[C@H](OC)[C@@H](C)[C@H]1O[C@@H]1[C@@H](O)[C@H](C)/C=C/C=C(\C)[C@H]1OC(=O)C[C@H](O)CC[C@@](C)(O)[C@@H](OC(C)=O)/C=C/[C@@H]1C [Rebecsinib],last time quantifiable in plasma,[1]; 1 mg/kg,up to 1 hour
same,last time quantifiable in plasma,[1]; 3 mg/kg,up to 4 hours
same,last time quantifiable in plasma,[1]; 5 mg/kg,up to 4 hours
same,last time quantifiable in plasma,[1]; 8 mg/kg,up to 4 hours
same,Tmax,[1]; 1 mg/kg,≤ 4.98 min
same,half-life,[1]; 1 mg/kg,20.5 min
same,Tmax,[1]; 3 mg/kg,≤ 10 min
same,half-life,[1]; 3 mg/kg,26.8 min
same,Tmax,[1]; 5 mg/kg,≤ 4.98 min
same,half-life,[1]; 5 mg/kg,18.8 min
same,Tmax,[1]; 8 mg/kg,≤ 10 min
same,half-life,[1]; 8 mg/kg,31.8 min
same,"human CD45+ cells in PB, BM, and SP",[2],preserved human CD45^+ cells
same,CD34+Lin- cell population in SP,"[2]; p=0.0006, Student's t-test",significant inhibition
same,CD34+Lin- cell population in PB,"[2]; p=0.0015, Student's t-test",significant inhibition
same,effect on normal HSPC and mature hematopoietic progeny,"[3]; 1 μM, compared with DMSO (vehicle)",no significant differences
same,clonogenic survival and replating (self-renewal) sensitivity,"[3]; sAML LSC vs MF HPC or normal cord blood, young or aged bone marrow HPCs",greater sensitivity of secondary AML (sAML) LSC

# From patent US20260364072A1, “METHODS FOR PROMOTING EXPANSION OF HUMAN CD34+ CELLS IN VIVO AND FOR PROMOTING NEURAL REGENERATION” (THE REGENTS OF THE UNIVERSITY OF CALIFORNIA, priority 2023, published 2026)
